Results on eight compounds are retold here after PubChem BioAssay (NCI).

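Dose response: 5 concentrations. Exposure: 48 h. Format: 96-well plates. Endpoint: linear interpolation; highest concentration if not reached. GI50 marks 50% less growth. TGI denotes the concentration required for complete inhibition of growth.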

Assay in all cases: DTP human tumour cell line panel, 48 h
Assay [1] has as its system SK-MEL-28 melanoma.
For assay [2], the system named is OVCAR-5 ovarian.
The test system of assay [3] is DU-145 prostate.
Assay [4] concerns COLO 205 colon.
For assay [5], the system named is HOP-92 NSCLC.
Assay [6] has as its system ACHN renal.
For assay [7], the system named is NCI-H23 lung.
Assay [8] deals with CAKI-1 renal.
Assay [9] concerns NCI-H522 lung.
The test system of assay [10] is OVCAR-3 ovarian.

In general, GI50 refers to the concentration giving 50% growth inhibition. The TGI is the concentration giving total growth inhibition. Regarding `CCC(CC)c1nc(Nc2ccc(C(=O)OC)cc2)c2ccccc2n1`, the GI50 is 7.1 µM in assay [1]; 17.9 µM in assay [2]; greater than 22.7 µM in assay [3]; 8.2 µM in [4]; 18.6 µM in assay [5]; 8.1 µM in assay [6]. The GI50 is 15.5 µM in assay [7], 5.74 µM in [8], 8.65 µM in assay [9] and 5.7 µM in assay [10]. The concentration for total growth inhibition (TGI) in [1] is 15.3 µM; in assay [2] it was greater than 50 µM; in [3], greater than 31.1 µM; in assay [4] it was 15 µM; in assay [5], greater than 26.4 µM; in assay [6] it was 18.1 µM. In addition, the TGI in assay [7] is greater than 37.4 µM; in assay [8], 11.8 µM; in assay [9], 18.4 µM; in assay [10], 21 µM.

In the case of `CCOC(=O)c1ccccc1OC(=O)NNc1ccccc1`, the GI50 was greater than 59.6 µM in [1]; 5.34 µM in [2]; greater than 48.5 µM in assay [3]; 2.45 µM in [4]; 6.92 µM in assay [5]; 0.587 µM in [6]. In addition, the GI50 was 30.3 µM in assay [7], 0.377 µM in [8], 1.67 µM in assay [9] and 16.3 µM in assay [10]. The TGI in assay [1], in assay [2], in assay [3], in assay [4], in [5] and in [6] was greater than 100 µM in each case. For the same compound, the TGI in [7], in assay [8], in [9] and in assay [10] was greater than 100 µM each time.

Turning to `CCCCCCCC/C=C/CCCCCCCC1=NC(C)(C)CN1CC(C)O` (stereo unspecified), the GI50 is 1.74 µM in assay [1]; 3.6 µM in assay [2]; 1.71 µM in assay [3]; 1.76 µM in assay [4]; 1.21 µM in [5]; 1.83 µM in assay [6]. The GI50 is 3.11 µM in assay [7], 1.53 µM in [8], 1.92 µM in assay [9] and 5.37 µM in assay [10]. For the same compound, the TGI turned out to be 3.19 µM in assay [1]; 10.4 µM in [2]; 3.09 µM in [3]; 3.45 µM in assay [4]; 5.58 µM in assay [5]; 3.55 µM in assay [6]. Also, the TGI in assay [7] is 7.99 µM; in [8], 3 µM; in assay [9], 4.33 µM; in [10], 9.96 µM.

Regarding `CC[C@H]1CN2CCc3cc(OC)c(OC)cc3C2C[C@@H]1CC1NCCc2cc(OC)c(OC)cc21` (stereo partly specified), the TGI in assay [1] stood at 0.119 µM; in assay [2] it was 0.645 µM; in assay [3], 0.105 µM; in assay [4], 0.017 µM; in [5] it was 0.0464 µM; in [6], 1.42 µM. The TGI amounted to 0.0916 µM in assay [7], 0.292 µM in assay [8], 0.0354 µM in assay [9] and 0.197 µM in assay [10]. In addition, the 50% growth inhibitory concentration (GI50) in assay [9] is 0.0127 µM.

Regarding `COc1ccc(C(=O)Nc2ncc(Cc3cccc(Cl)c3)s2)cc1OC`, the GI50 in assay [1] is 0.119 µM; in assay [2] it was 1.25 µM; in assay [3], 1.88 µM; in assay [4] it was 0.222 µM; in assay [5], 1.99 µM; in [6], 0.0812 µM. In addition, the GI50 in assay [7] is 2.51 µM; in assay [8], 0.309 µM; in assay [9], 0.921 µM; in assay [10], 0.368 µM. Further, the TGI in assay [1], in assay [2], in assay [3], in [4], in assay [5] and in [6] was greater than 100 µM in each case. The TGI was greater than 100 µM in [7], greater than 100 µM in [8], greater than 100 µM in assay [9] and 9.71 µM in assay [10].

Take `CC1(C)N=C(N)N=C(N)N1c1ccc(CCCCc2ccccc2)c(Cl)c1`: the GI50 in assay [1] was 0.53 µM; in assay [2] it was 0.331 µM; in assay [3], 0.0577 µM; in assay [4], 0.0281 µM; in [5], 0.464 µM; in [6], 0.461 µM. Also, the GI50 is 0.0543 µM in assay [7], 0.869 µM in assay [8], 0.05 µM in assay [9] and 0.0541 µM in assay [10]. The TGI was found to be 13.4 µM in assay [1]; 22.4 µM in [2]; 14 µM in assay [3]; 1.68 µM in assay [4]; 4.48 µM in [5]; 22.1 µM in assay [6]. Further, the TGI in assay [7] stood at 10.2 µM; in assay [8], 16.8 µM; in assay [9], 1.83 µM; in assay [10], 1.76 µM.

On to `O=C(/C=C/c1ccco1)c1cc(F)c(Cl)cc1Cl`, for which the GI50 in [1] was 22.7 µM; in assay [2] it was 22.5 µM; in assay [3] it was 19.9 µM; in assay [4] it was 18.6 µM; in [5], 18.1 µM; in assay [6], 20.1 µM. Further, the GI50 in assay [7] is 31 µM; in assay [8], 32.7 µM; in [9], 18.4 µM; in assay [10], 21.4 µM. In addition, the TGI in assay [1] turned out to be 50.2 µM; in [2], 48.9 µM; in assay [3], 44.1 µM; in assay [4], 38.4 µM; in [5] it was 39.6 µM; in [6], 45.1 µM. In addition, the TGI in assay [7] was greater than 100 µM; in assay [8] it was greater than 100 µM; in [9], 39.5 µM; in assay [10], 60.4 µM.

In the case of `C=C(C)[C@@H]1CC[C@]2(COCCC#N)CC[C@]3(C)[C@H](CC[C@@H]4[C@@](C)(CCCNCCC#N)[C@H](C(=C)C)CC[C@]43C)[C@@H]12`, the GI50 was 9.26 µM in [1]; 13.4 µM in assay [2]; 21.6 µM in [3]; 14.6 µM in assay [4]; 7.03 µM in [5]; 13.2 µM in assay [6]. The GI50 is 16.5 µM in [7], 7.13 µM in [8], 8.55 µM in assay [9] and 9.66 µM in assay [10]. The TGI in [1] is 18 µM; in assay [2], 44.1 µM; in [3] it was greater than 50 µM; in [4], greater than 50 µM; in [5], 28.5 µM; in assay [6] it was greater than 50 µM. The TGI in assay [7] was greater than 50 µM; in [8], 15.6 µM; in assay [9], 23.4 µM; in [10], 22.4 µM.
